Data as given in patent publication US12343319B2, “Compositions and methods for treatment of diseases and disorders” (Atai Therapeutics Inc., priority 2023, dated 2025).

How the values were obtained:
5-HT2B = target: T1, 5-HT2B (Homo sapiens, UniProt P41595); test: Radioligand binding, 5-HT2B; conditions: for Max % inhibition: radioligand binding, human 5-HT2B
T1 construct: expressed in transfected cells

5-HT2A [1] = test: IPOne, 5-HT2A; type: cell-based, human; conditions: IPOne, human; calculated using ΔΔlog(Emax/EC50), reference = 1
Experimental: (§1) In vitro pharmacology studies were performed to evaluate the effects of compound 2-1 on functional activity of several 5-HT receptors using recombinant target overexpression cell culture systems. The effect of compound 2-1 on G protein-dependent signaling was investigated at 5-HT2A, 5-HT2B, and 5-HT2C receptors with calcium mobilization and IPOne assays; and at 5-HT1A, 5-HT1B, 5-HT1F, 5-HT5A, and 5-HT7D receptors with a cAMP assay. G protein-independent signaling was investigated at the 5-HT2A receptor with a β-Arrestin assay.
(§2) In vitro pharmacology studies were performed to evaluate the effects of compound 2-2 on functional activity at several 5-HT receptors using recombinant target overexpression cell culture systems. The effect of compound 2-2 on G protein-dependent signaling was investigated at 5-HT2A, 5-HT2B, and 5-HT2C receptors with calcium mobilization and IPOne assays; and at 5-HT1A, 5-HT1B, 5-HT1F, 5-HT5A, and 5-HT7D receptors with a cAMP assay. G protein-independent signaling was investigated at the 5-HT2A receptor with a β-arrestin assay. […] In Table 4, 5-HT receptor selectivity was calculated using ΔΔlog(Emax/EC50). Assay reference α-Me-5-HT or 5-HT was used for normalization at each receptor (5-HT2A/5-HT2B selectivity=1; 5-HT2A/5-HT2C selectivity=1). ND in Table 4 indicates, not determined, plateau was not reached within the concentration range tested to determine Emax.

5-HT5A = target: T2, 5-HT5A (Homo sapiens, UniProt P47898); test: cAMP, 5-HT5A; type: cell-based
T2 construct: expressed in transfected cells
T2 sequence (P47898 whole entry): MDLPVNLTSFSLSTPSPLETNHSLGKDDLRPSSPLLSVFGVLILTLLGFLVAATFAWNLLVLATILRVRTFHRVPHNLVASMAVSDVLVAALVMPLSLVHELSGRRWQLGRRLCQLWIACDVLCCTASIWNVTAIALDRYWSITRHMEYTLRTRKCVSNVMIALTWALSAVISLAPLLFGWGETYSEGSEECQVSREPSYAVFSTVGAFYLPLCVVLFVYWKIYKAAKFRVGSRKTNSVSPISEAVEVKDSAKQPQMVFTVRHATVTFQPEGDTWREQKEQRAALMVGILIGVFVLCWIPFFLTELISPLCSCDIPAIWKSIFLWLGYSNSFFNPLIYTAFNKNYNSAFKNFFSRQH
Experimental: as §1, §2

5-HT2A (mouse) = 5-HT2A (mouse) (Mus musculus, UniProt P35363); test: β-Arrestin, mouse 5-HT2A; type: cell-based; conditions: for Emax: β-Arrestin, mouse 5-HT2A, read-out: Emax (%5-HT)
Sequence of 5-HT2A (mouse) (P35363 whole entry): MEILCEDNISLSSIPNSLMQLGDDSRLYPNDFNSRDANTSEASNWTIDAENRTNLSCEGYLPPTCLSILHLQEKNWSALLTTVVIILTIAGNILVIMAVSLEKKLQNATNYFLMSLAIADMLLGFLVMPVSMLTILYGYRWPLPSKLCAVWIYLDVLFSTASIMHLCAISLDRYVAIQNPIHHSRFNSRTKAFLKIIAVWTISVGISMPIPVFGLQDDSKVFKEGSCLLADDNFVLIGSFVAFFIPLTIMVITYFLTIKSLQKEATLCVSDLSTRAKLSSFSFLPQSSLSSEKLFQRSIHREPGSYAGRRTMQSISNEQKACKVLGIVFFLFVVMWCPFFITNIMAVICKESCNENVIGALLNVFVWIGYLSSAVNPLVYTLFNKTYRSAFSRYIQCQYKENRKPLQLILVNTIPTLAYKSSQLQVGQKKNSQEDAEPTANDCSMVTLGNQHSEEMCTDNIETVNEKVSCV
Excerpt: Overall, in vitro activity at rodent 5-HT2A and 5-HT2B receptors is consistent with the human receptor results, with compound 2-1 acting as a potent and selective 5-HT2A agonist.
Overall, in vitro activity at rodent 5-HT2A and […] receptors is consistent with the human receptor results, with compound 2-2 acting as a potent and selective 5-HT2A agonist. In Table 5, ND indicates not determined.

Male WKY rats = test: Sleep-wake behavior, EEG power, body temperature and locomotor activity in WKY rats; type: in vivo, rat
Experimental: Male WKY rats (n=7, 289-388 g at the start of dosing) were housed in groups of 2-3 animals per cage with standard housing conditions. For implantation of the EEG electrodes and radio transmitter, the animals were anesthetized with isoflurane (2-5% in oxygen at 11/min) throughout the procedure. The scalp, neck and right flank were cleared of hair using clippers and cleaned using diluted Hibitane (chlorhexidine, 50% (v/v) in water). A non-steroidal anti-inflammatory agent was administered (carprofen 5 mg/kg, s.c.) and the animals placed on a homeothermic blanket (37° C.) with the head fixed in a stereotaxic frame. Incisions were made in the scalp and neck, as well as in the right flank. Blunt dissection of the abdominal muscle was then made to gain access to the peritoneal cavity. A radio transmitter (HD-S02, Data Sciences International) was implanted in the peritoneal cavity and secured to the muscle wall with non-absorbable sutures. The wires of the transmitter were passed using a 19G needle through the muscle wall and then sub-dermally to the scalp to act as Electroencephalogram (EEG)/Electromyograph (EMG) electrodes. The scalp was cleared of connective tissue and two craniotomies were made with a trepanning drill (fronto-parietal coordinates; Bregma+2 mm anterior, midline+1.0 mm lateral and Lambda 0 mm, +1.5 mm lateral). The positive EEG electrode was attached to the anterior craniotomy and the negative EEG electrode to the posterior craniotomy. Both electrodes were secured in place using a suitable adhesive agent (cyanoacrylate gel, RS components). A second set of electrodes were sutured into the nuchal muscle to act as EMG electrodes. All incisions were closed using absorbable suture.
All animals were allowed to recover in a warm environment and given 5 ml of saline subcutaneously (s.c.). Animals were kept singly in the cage until the next day, then pair housed for the duration of post-surgical recovery (minimum 7 days). During the recovery period, the rats received 5 days of standard post-operative care with no further experimental procedures until the pre-operative body weight was regained. The animals were maintained on a 12/12 hour light dark cycle (08:00 am lights on) after the surgery. Home cages and post-operative cages contained bedding and nesting material, along with environmental enrichment such as wooden chew-sticks and plastic tunnels.
On test days, ˜60 minutes after lights-on, animals were placed in recording boxes similar to their home-cages, except that environmental enrichment was restricted to a large bundle of nesting and bedding material, to avoid interference with the telemeter signals. Then, data acquisition was initiated for confirmation of signal quality. EEG and EMG data were acquired using intraperitoneal HD-S02 transmitters (DSI, New Brighton, MN) and Spike2 software (CED). EEG and EMG signals were digitized 500 samples/second, amplified 1000× and bandpass filtered at 0.5-100 Hertz (Hz). After 60 minutes of habituation, each animal was briefly removed from its box and dosed via the intraperitoneal (i.p.) route in a volume of 2 mL/kg. Test conditions included saline vehicle, psilocybin (10 mg/kg) positive control, compound 2-1 at 3, 10 and 30 mg/kg and compound 2-2 at 10, 17 and 30 mg/kg. Doses were based on the molecular weight of the free bases. compound 2-1 and compound 2-2 dosing solutions were prepared in 40% (w/v) hydroxypropyl-beta-cyclodextrin. After dosing, animals were immediately put back into the recording boxes, the experimenter left the room, and recordings continued uninterrupted for 23 hours. At the end of the recording session, the transmitters were turned off and the animals were returned to their home cages. All animals received all treatment conditions in a pseudo randomized cross-over fashion with a minimum washout period of 7 days between doses.
All data was aligned to zero (the time of dosing), with epochs defined as non-overlapping 10-second time segments. […]

5-HT2A [2] = target: T3, 5-HT2A (Homo sapiens, UniProt P28223); test: Ca++ (calcium mobilization), 5-HT2A; type: cell-based; parameters: expressed in transfected cells; conditions: for Emax: read-out: Emax (%5-HT)
T3 sequence (P28223 whole entry): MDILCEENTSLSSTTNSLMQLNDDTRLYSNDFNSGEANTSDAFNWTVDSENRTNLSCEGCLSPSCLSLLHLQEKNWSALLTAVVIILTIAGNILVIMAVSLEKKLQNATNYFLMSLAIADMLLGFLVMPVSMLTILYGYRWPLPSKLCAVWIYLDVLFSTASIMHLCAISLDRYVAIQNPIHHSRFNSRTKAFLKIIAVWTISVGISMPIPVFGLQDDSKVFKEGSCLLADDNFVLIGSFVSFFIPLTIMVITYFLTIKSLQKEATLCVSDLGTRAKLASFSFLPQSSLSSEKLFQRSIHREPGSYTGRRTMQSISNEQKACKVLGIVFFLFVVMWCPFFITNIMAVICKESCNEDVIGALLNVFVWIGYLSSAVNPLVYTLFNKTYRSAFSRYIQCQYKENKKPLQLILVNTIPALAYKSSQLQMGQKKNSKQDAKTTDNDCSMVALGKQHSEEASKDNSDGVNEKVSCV
Experimental: as §1, §2

5-HT2A [3] = target: T3, 5-HT2A; test: IPOne, 5-HT2A; type: cell-based; parameters: expressed in transfected cells; conditions: for Emax: read-out: Emax (% α-Me-5-HT)
Experimental: as §1, §2

5-HT2A [4] = target: T3, 5-HT2A; test: 5-HT2A receptor binding in human post-mortem frontal cortical tissue
[5] = male WKY rats, IP, initial 4 hours following dosing
[6] = over 6 hours post dose, WKY rats, IP

T1 sequence (P41595 whole entry): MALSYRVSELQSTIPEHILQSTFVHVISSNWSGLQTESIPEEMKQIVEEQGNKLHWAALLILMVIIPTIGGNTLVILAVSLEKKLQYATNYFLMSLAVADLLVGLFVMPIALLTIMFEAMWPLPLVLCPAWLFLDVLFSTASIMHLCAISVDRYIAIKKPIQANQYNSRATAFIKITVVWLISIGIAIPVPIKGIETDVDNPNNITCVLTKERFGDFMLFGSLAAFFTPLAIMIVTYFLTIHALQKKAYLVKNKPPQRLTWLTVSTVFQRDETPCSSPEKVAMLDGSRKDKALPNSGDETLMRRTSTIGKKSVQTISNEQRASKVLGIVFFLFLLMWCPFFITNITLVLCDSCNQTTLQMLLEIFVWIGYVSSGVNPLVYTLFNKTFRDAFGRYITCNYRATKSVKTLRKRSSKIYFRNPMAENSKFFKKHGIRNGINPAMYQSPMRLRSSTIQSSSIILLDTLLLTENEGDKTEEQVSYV

Q: How did the IC50 (5-HT2B) turn out when COc1ccc(OC)c(CCNCc2cc(C)cc(Cl)c2)c1 [Compound 2-1, N-(3-chloro-5-methylbenzyl)-2-(2,5-dimethoxyphenyl)ethan-1-amine] was run?
A: Its IC50 is 0.0849 µM.

Q: What about the Max % inhibition (5-HT2B) of the same compound?
A: Its Max % inhibition is 102.5%.

Q: What about the “5-HT2A/5-HT2B Selectivity” value (5-HT2A [1]) of the same compound?
A: The value was 160.

Q: What about the EC50 (5-HT5A) of the same compound?
A: Its EC50 is 0.0252 µM.

Q: And the Emax (5-HT5A; cAMP, human 5-HT5A, read-out: Emax (%5-HT))?
A: Its Emax is 44.4%.

Q: What about the “agonist activity (in words)” value (5-HT5A; human 5-HT5A receptor) of the same compound?
A: The value was “partial agonist activity”.

Q: And the EC50 (5-HT2A (mouse))?
A: The EC50 was 0.00437 µM.

Q: And the Emax (5-HT2A (mouse))?
A: Its Emax is 65%.

Q: What about the “non-REM sleep amount vs vehicle” value (Male WKY rats; 3 mg/kg i.p., interval starting at 5 hours post dose) of the same compound?
A: The value was “significantly increased”.

Q: What about the “latency to non-REM (NREM) sleep vs vehicle” value (Male WKY rats; 10 mg/kg i.p.) of the same compound?
A: Its value is “significantly increased”.

Q: And the “persistence of significant effect on delta power during non-REM sleep” value (Male WKY rats; 30 mg/kg i.p.)?
A: The value was “persisted through the period starting at 4 hours post dose”.

Q: What about the “high gamma power during waking” value (Male WKY rats; 30 mg/kg i.p., over 24 hours post dose) of the same compound?
A: Its value is “significant and lasting decrease”.

Q: What about the “amount of time spent in wake vs vehicle” value (Male WKY rats; 3, 10 and 30 mg/kg i.p.) of the same compound?
A: Its value is “significantly increased”.

Q: What about the “amount of time spent in non-REM sleep vs vehicle” value (Male WKY rats; 3, 10 and 30 mg/kg i.p., first 3 hours after administration) of the same compound?
A: Its value is “significantly decreased”.

Q: And the “low frequency (delta and theta) power during non-REM sleep” value (Male WKY rats; 3, 10 and 30 mg/kg i.p., post-dose period 0-2 hours)?
A: Its value is “significantly decreased”.

Q: And the “latency to REM sleep vs vehicle” value (Male WKY rats; 10 and 30 mg/kg i.p.)?
A: The value was “significantly increased”.

Q: And the “amount of time spent in REM sleep vs vehicle” value (Male WKY rats; 10 and 30 mg/kg i.p., starting in the third hour post dose)?
A: The value was “significantly decreased”.

Q: And the “waking high gamma power” value (Male WKY rats; [5])?
A: Its value is “decreased”.

Q: And the “waking theta and beta power” value (Male WKY rats; [5])?
A: Its value is “significantly increased”.

Q: And the body temperature (Male WKY rats; [6])?
A: Its body temperature is “↓ (for 6 h)”.

Q: What about the EC50 (5-HT2A [2]) of the same compound?
A: The EC50 was 0.00424 µM.

Q: What about the Emax (5-HT2A [2]) of the same compound?
A: The Emax was 93.3%.

Q: What about the EC50 (5-HT2A [3]) of the same compound?
A: Its EC50 is 0.0028 µM.

Q: What about the Emax (5-HT2A [3]) of the same compound?
A: Its Emax is 99.4%.

Q: Which results are given for COc1ccc(OC)c(CCNCc2cc(C)cc(F)c2)c1 [Compound 2-2, 2-(2,5-dimethoxyphenyl)-N-(3-fluoro-5-methylbenzyl)ethan-1-amine]?
A: IC50 (5-HT2B): 0.321 µM; Max % inhibition (5-HT2B): 99.56%; 5-HT2A/5-HT2B Selectivity (5-HT2A [1]): 177; EC50 (5-HT5A): > 30 µM; EC50 (5-HT2A (mouse)): 0.0218 µM; Emax (5-HT2A (mouse)): 60.2%; effects on body temperature and locomotor activity (Male WKY rats; male WKY rats): minimal effects; Locomotor activity (Male WKY rats; [6]): No Δ (No significant change); EC50 (5-HT2A [2]): 0.009 µM; Emax (5-HT2A [2]): 88%; EC50 (5-HT2A [3]): 0.00919 µM; Emax (5-HT2A [3]): 97.9%; IC50 (5-HT2A [4]): 0.069 µM; Ki (5-HT2A [4]): 0.0308 µM
